Target: T1, SpG6PD1 (Sphingomonas sp. PAMC 26621, UniProt Z9Q3C2ML64)
T1 construct: cloning primer appears to add Gly after Met1 (ATGGGGCCAATC); 56 kDa on SDS-PAGE; tag removal not mentioned
T1 sequence (Z9Q3C2ML64 1-488): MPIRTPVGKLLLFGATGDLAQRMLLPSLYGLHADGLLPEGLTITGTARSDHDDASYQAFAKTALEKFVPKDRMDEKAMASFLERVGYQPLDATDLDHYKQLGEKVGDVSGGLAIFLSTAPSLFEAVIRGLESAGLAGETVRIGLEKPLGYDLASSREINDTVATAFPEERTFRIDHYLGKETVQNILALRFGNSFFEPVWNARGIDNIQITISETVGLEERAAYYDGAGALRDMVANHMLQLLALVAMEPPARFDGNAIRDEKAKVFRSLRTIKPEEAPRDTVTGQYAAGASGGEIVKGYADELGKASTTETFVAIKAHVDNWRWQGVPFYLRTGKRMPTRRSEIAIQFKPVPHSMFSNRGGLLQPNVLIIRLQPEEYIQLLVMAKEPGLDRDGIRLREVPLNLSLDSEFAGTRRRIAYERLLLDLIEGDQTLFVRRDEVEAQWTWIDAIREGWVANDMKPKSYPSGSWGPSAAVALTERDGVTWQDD
Assay: NAD(P)H formation at […] nm, Lineweaver-Burk
Format: biochemical
Settings: NADP+ as co-substrate (assay mixture 100 µM); G6P varied 500-2000 µM; 50 mM Tris-HCl pH 8.0, 25 mM NaCl, 0.1 mM EDTA, 5% glycerol; 30 °C

Question: How did the Km turn out when `O=P(O)(O)OC[C@H]1OC(O)[C@H](O)[C@@H](O)[C@@H]1O` (stereo partly shown) [glucose 6-phosphate] was run?
Answer: Its Km is 145 ± 2 µM.

Reference: paper PMC6471386, “Cloning, Expression, and Characterization of a Psychrophilic Glucose 6-Phosphate Dehydrogenase from Sphingomonas sp. PAMC 26621” (International Journal of Molecular Sciences, 2019)
